In patent publication US20220348558A1, “INHIBITORS OF ENCEPHALITIC ALPHAVIRUSES” (priority 2019, published 2022) one finds EC50 data, which are given here for 29 molecules.

The subject of one experiment is WEEV California. As to the kind of experiment: microbe, parasite or virus in culture. The class given is cell-based. The note with it: Western equine encephalitis virus, Vero 76, 48 h, read-out: WEEV California EC50 nM.
A further experiment concerns VEEV TC83. As to the kind of experiment: microbe, parasite or virus in culture. The class given is cell-based. The note with it: Venezuelan equine encephalitis virus, Vero 76, 48 h, read-out: VEEV TC83 EC50 nM.

For the molecule `CN1CCC(N2CCC[C@H]2c2nc3ccc([N+](=O)[O-])cc3c(=O)n2-c2ccccc2)CC1` [Example 7, (S)-2-(1-(1-methylpiperidin-4-yl)pyrrolidin-2-yl)-6-nitro-3-phenylquinazolin-4 (3H)-one], the half-maximal effective concentration (EC50) in the experiment on WEEV California and with VEEV TC83 was greater than 1000 nM each time.

Regarding `COc1ccc(-n2c([C@@H]3CCCN3)nc3ccc([N+](=O)[O-])cc3c2=O)cc1` [Example 12, (S)-3-(4-methoxyphenyl)-6-nitro-2-(pyrrolidin-2-yl) quinazolin-4 (3H)-one], the figures for the half-maximal effective concentration (EC50) in the experiment with WEEV California and in the experiment on VEEV TC83 were 151 to 500 nM and 1 to 50 nM, respectively.

On to `O=c1c2cc([N+](=O)[O-])ccc2nc(C2CCCN2)n1-c1ccccc1` (stereo not shown) [Example 1, 6-nitro-3-phenyl-2-(pyrrolidin-2-yl) quinazolin-4 (3H)-one], for which the concentration giving a half-maximal response (EC50) in the experiment on WEEV California and in the experiment on VEEV TC83 was 51 to 150 nM throughout.

In the case of `Cc1cc([N+](=O)[O-])cc2c(=O)n(-c3ccc(Cl)c(F)c3)c([C@H]3CCCN3)nc12` [Example 60, (R)-3-(4-chloro-3-fluorophenyl)-8-methyl-6-nitro-2-(pyrrolidin-2-yl) quinazolin-4 (3H)-one], the 50% effective concentration (EC50) in the experiment with WEEV California and with VEEV TC83 was 1 to 50 nM in each case.

Consider `O=c1c2cc([N+](=O)[O-])ccc2nc([C@H]2CCCN2)n1-c1ccc(Cl)cc1` [Example 23, (R)-3-(4-chlorophenyl)-6-nitro-2-(pyrrolidin-2-yl) quinazolin-4 (3H)-one], for which the EC50 in the experiment on WEEV California and in the experiment on VEEV TC83 was 1 to 50 nM each time.

With `COc1ccc(-n2c(C3CCCN3)nc3c(N4CCC(N5CCOCC5)CC4)cc(C#N)cc3c2=O)cc1F` (stereo not shown) [Example 114, 3-(3-fluoro-4-methoxyphenyl)-8-(4-morpholinopiperidine-1-yl)-4-oxo-2-(pyrrolidin-2-yl)-3,4-dihydroquinazoline-6-carbonitrile], the figures for the EC50 with WEEV California and in the experiment on VEEV TC83 were 51 to 150 nM and 1 to 50 nM, respectively.

Consider `COc1ccc(-n2c(C3CCCN3)nc3c(-c4ccc(S(C)(=O)=O)cc4)cc(C#N)cc3c2=O)cc1F` (stereo not shown) [Example 136, 3-(3-fluoro-4-methoxyphenyl)-8-(4-(methylsulfonyl)phenyl)-4-oxo-2-(pyrrolidin-2-yl)-3,4-dihydroquinazoline-6-carbonitrile], for which the EC50 in the experiment with WEEV California and with VEEV TC83 was 1 to 50 nM each time.

`COc1ccc(-n2c([C@H]3CCN(C)C3)nc3c(C)cc([N+](=O)[O-])cc3c2=O)cc1F` [Example 66, (S)-3-(3-fluoro-4-methoxyphenyl)-8-methyl-2-(1-methylpyrrolidin-3-yl)-6-nitroquinazolin-4 (3H)-one]: the 50% effective concentration (EC50) in the experiment with WEEV California and in the experiment on VEEV TC83 was 151 to 500 nM throughout.

For the molecule `COc1ccc(-n2c([C@@H]3CCCN3)nc3c(Br)cc(C#N)cc3c2=O)cc1F` [Example 97, (S)-8-bromo-3-(3-fluoro-4-methoxyphenyl)-4-oxo-2-(pyrrolidin-2-yl)-3,4-dihydroquinazoline-6-carbonitrile], the half-maximal effective concentration (EC50) in the experiment with WEEV California and in the experiment with VEEV TC83 was 1 to 50 nM throughout.

Turning to `COc1ccc(-n2c(C[C@H]3CCCN3)nc3c(-c4ccc(C)nc4)cc(C#N)cc3c2=O)cc1F` [Example 117, (R)-3-(3-fluoro-4-methoxyphenyl)-8-(6-methylpyridin-3-yl)-4-oxo-2-(pyrrolidin-2-ylmethyl)-3,4-dihydroquinazoline-6-carbonitrile], the concentration giving a half-maximal response (EC50) is 501 to 1000 nM in the experiment on WEEV California and 151 to 500 nM in the experiment on VEEV TC83.

For `CN[C@@H](C)c1nc2ccc([N+](=O)[O-])cc2c(=O)n1-c1ccc(OC)cc1` [Example 206, (S)-3-(4-methoxyphenyl)-2-(1-(methylamino)ethyl)-6-nitroquinazolin-4 (3H)-one], the 50% effective concentration (EC50) with WEEV California is 151 to 500 nM; in the experiment with VEEV TC83 it was 51 to 150 nM.

With `O=c1c2cc([N+](=O)[O-])ccc2nc([C@H]2CCCN2C2CCOCC2)n1-c1ccccc1` [Example 3, (R)-6-nitro-3-phenyl-2-(1-(tetrahydro-2H-pyran-4-yl)pyrrolidin-2-yl) quinazolin-4 (3H)-one], the EC50 in the experiment on WEEV California was greater than 1000 nM; in the experiment with VEEV TC83, 501 to 1000 nM.

With `O=c1c2cc([N+](=O)[O-])ccc2nc([C@@H]2CCCN2)n1-c1ccccc1` [Example 5, (S)-6-nitro-3-phenyl-2-(pyrrolidin-2-yl) quinazolin-4 (3H)-one], the half-maximal effective concentration (EC50) in the experiment with WEEV California and in the experiment on VEEV TC83 was 151 to 500 nM in each case.

On to `COc1c(F)cc(-n2c(C3CCCN3)nc3c(-c4cc(C)nc(C)c4)cc(C#N)cc3c2=O)cc1F` (stereo not shown) [Example 159, 3-(3,5-Difluoro-4-methoxyphenyl)-8-(2,6-dimethylpyridin-4-yl)-4-oxo-2-(pyrrolidin-2-yl)-3,4-dihydroquinazoline-6-carbonitrile], for which the EC50 in the experiment on WEEV California and in the experiment with VEEV TC83 was 51 to 150 nM each time.

For `COCCOc1c(F)cc(-n2c(C3CCCN3)nc3c(-c4cc(C)nc(C)c4)cc(C#N)cc3c2=O)cc1F` (stereo not shown) [Example 162, 3-(3,5-difluoro-4-(2-methoxyethoxy)phenyl)-8-(2,6-dimethylpyridin-4-yl)-4-oxo-2-(pyrrolidin-2-yl)-3,4-dihydroquinazoline-6-carbonitrile], the EC50 in the experiment on WEEV California and in the experiment on VEEV TC83 was 51 to 150 nM each time.

As for `O=c1c2cc([N+](=O)[O-])ccc2nc(C2CCCN2)n1-c1ccc(F)cc1` (stereo not shown) [Example 42, 3-(4-fluorophenyl)-6-nitro-2-(pyrrolidin-2-yl)quinazolin-4 (3H)-one], the EC50 lay within 151 to 500 nM with WEEV California and 51 to 150 nM with VEEV TC83.

Turning to `Cc1ccc(-c2cc(C#N)cc3c(=O)n(-c4ccc(N5CCOCC5)c(F)c4)c(C4CCCN4)nc23)cn1` (stereo not shown) [Example 146, 3-(3-Fluoro-4-morpholinophenyl)-8-(6-methylpyridin-3-yl)-4-oxo-2-(pyrrolidin-2-yl)-3,4-dihydroquinazoline-6-carbonitrile], the figures for the half-maximal effective concentration (EC50) with WEEV California and with VEEV TC83 were 501 to 1000 nM and 151 to 500 nM, respectively.

As for `COc1ccc(-n2c([C@H]3CCNC3)nc3c(C)cc([N+](=O)[O-])cc3c2=O)cc1F` [Example 65, (S)-3-(3-fluoro-4-methoxyphenyl)-8-methyl-6-nitro-2-(pyrrolidin-3-yl) quinazolin-4 (3H)-one], the EC50 in the experiment on WEEV California and in the experiment with VEEV TC83 was 51 to 150 nM throughout.

As to `COc1ccc(-n2c([C@@H]3CCCN3C)nc3ccc([N+](=O)[O-])cc3c2=O)cc1` [Example 13, (S)-3-(4-methoxyphenyl)-2-(1-methylpyrrolidin-2-yl)-6-nitroquinazolin-4 (3H)-one], the EC50 was 51 to 150 nM in the experiment on WEEV California and 1 to 50 nM with VEEV TC83.

With `COc1ccc(-c2cc(C#N)cc3c(=O)n(-c4ccc(OC)c(F)c4)c(C4CCCN4)nc23)cn1` (stereo not shown) [Example 125, 3-(3-fluoro-4-methoxyphenyl)-8-(6-methoxypyridin-3-yl)-4-oxo-2-(pyrrolidin-2-yl)-3,4-dihydroquinazoline-6-carbonitrile], the concentration for a half-maximal effect (EC50) in the experiment on WEEV California and in the experiment on VEEV TC83 was 1 to 50 nM each time.

Regarding `COc1ccc(-n2c([C@H]3CCCN3)nc3c(-c4ccc(C)nc4)cc([N+](=O)[O-])cc3c2=O)cc1F` [Example 92, (R)-3-(3-fluoro-4-methoxyphenyl)-8-(6-methylpyridin-3-yl)-6-nitro-2-(pyrrolidin-2-yl) quinazolin-4 (3H)-one], the half-maximal effective concentration (EC50) in the experiment on WEEV California and with VEEV TC83 was 1 to 50 nM each time.

On to `COc1ccc(-n2c([C@H]3CCCN3)nc3c(C)cc(C#N)cc3c2=O)cc1F` [Example 52, (R)-3-(3-fluoro-4-methoxyphenyl)-8-methyl-4-oxo-2-(pyrrolidin-2-yl)-3,4-dihydroquinazoline-6-carbonitrile], for which the EC50 with WEEV California and in the experiment on VEEV TC83 was 1 to 50 nM each time.

In the case of `COc1ccc(-n2c([C@H]3CCCN3)nc3c(-c4cncc(F)c4)cc(C#N)cc3c2=O)cc1F` [Example 106, (R)-3-(3-fluoro-4-methoxyphenyl)-8-(5-fluoropyridin-3-yl)-4-oxo-2-(pyrrolidin-2-yl)-3,4-dihydroquinazoline-6-carbonitrile], the 50% effective concentration (EC50) with WEEV California and with VEEV TC83 was 1 to 50 nM in each case.

Consider `COc1ccc(-n2c([C@H]3CCCN3)nc3c(-c4cncnc4)cc([N+](=O)[O-])cc3c2=O)cc1F` [Example 88, (R)-3-(3-fluoro-4-methoxyphenyl)-6-nitro-8-(pyrimidin-5-yl)-2-(pyrrolidin-2-yl) quinazol-in-4 (3H)-one], for which the EC50 in the experiment on WEEV California and in the experiment on VEEV TC83 was 1 to 50 nM throughout.

Take `COc1ccc(-n2c([C@@H]3CCCN3)nc3c(-c4cccnc4)cc([N+](=O)[O-])cc3c2=O)cc1F` [Example 83, (S)-3-(3-fluoro-4-methoxyphenyl)-6-nitro-8-(pyridin-3-yl)-2-(pyrrolidin-2-yl) quinazolin-4 (3H)-one]: the EC50 in the experiment with WEEV California and with VEEV TC83 was 1 to 50 nM each time.

For the molecule `COc1ccc(-n2c([C@@H]3C[C@@H](O)CN3)nc3c(-c4ccc(C)nc4)cc(C#N)cc3c2=O)cc1F` [Example 116, 3-(3-fluoro-4-methoxyphenyl)-2-((2S,4R)-4-hydroxypyrrolidin-2-yl)-8-(6-methylpyridin-3-yl)-4-oxo-3,4-dihydroquinazoline-6-carbonitrile], the EC50 in the experiment on WEEV California and in the experiment with VEEV TC83 was greater than 1000 nM in each case.

In the case of `N#Cc1cccc(-n2c([C@H]3CCCN3)nc3ccc([N+](=O)[O-])cc3c2=O)c1` [Example 21, (R)-3-(6-nitro-4-oxo-2-(pyrrolidin-2-yl)quinazolin-3 (4H)-yl)benzonitrile], the EC50 with WEEV California and in the experiment with VEEV TC83 was greater than 1000 nM throughout.

Turning to `COc1c(F)cc(-n2c(C3CCCN3)nc3c(-c4ccc(C#CC(C)(C)O)cc4)cc(C#N)cc3c2=O)cc1F` (stereo not shown) [Example 170, 3-(3,5-difluoro-4-methoxyphenyl)-8-(4-(3-hydroxy-3-methylbut-1-yn-1-yl)phenyl)-4-oxo-2-(pyrrolidin-2-yl)-3,4-dihydroquinazoline-6-carbonitrile], the 50% effective concentration (EC50) with WEEV California and in the experiment on VEEV TC83 was 51 to 150 nM in each case.

Turning to `COc1ccc(-n2c([C@H]3CCCN3)nc3c(-c4ccc(C(F)(F)F)nc4)cc([N+](=O)[O-])cc3c2=O)cc1F` [Example 91, (R)-3-(3-fluoro-4-methoxyphenyl)-6-nitro-2-(pyrrolidin-2-yl)-8-(6-(trifluoromethyl)pyridin-3-yl) quinazolin-4 (3H)-one], the EC50 in the experiment with WEEV California and in the experiment with VEEV TC83 was 1 to 50 nM in each case.
